Measurements taken from US20020028851A1, “Guanylhydrazones and their use to treat inflammatory conditions” (priority 1994, published 2002).

How the values were obtained:
[1] = test system: TNF; experiment: Cytokine production by LPS/γIFN-stimulated human PBMC: TNF; format: cell-based; conditions: γIFN+LPS, 18 hr
Source text: (§1) Similar results concerning a variety of cytokines in addition to TNF, e.g., IL-6 and Macrophage Inflammatory Proteins-1α and -1β (MIP-1α and MIP-1β) were obtained using human peripheral blood as a source of monocytes. Human peripheral blood mononuclear cells (PBMC) were isolated using “FICOLL®”-based methods and plated in standard 6-well culture plates at a concentration of 10^6/well and allowed to adhere for from 2 hr to overnight whereupon non-adherent cells were washed out and the medium was then replaced with medium containing the compound to be tested. One hour later, the medium was supplemented so as to contain 25 U/ml γIFN and 0.1 μg/ml LPS and the cultures incubated a further 18 hr. The medium was then collected, and cell debris removed by centrifugation. This conditioned supernatant was then assayed for the presence of cytokines using the standard methodologies of L929 cell cytotoxicity bioassay and immunoassay (ELISA).

[2] = test system: RAW 264.7 cells; experiment: Whole cell inhibition assay for urea output; format: cell-based, murine; conditions: for urea % suppression of induced production: γIFN+LPS, 18 hours
Experimental: RAW 264.7 cells are plated in microculture wells at 1×10^6/ml in RPMI 1640 with 10% FBS and otherwise standard culture conditions and allowed to adhere for 5 hours. They are then activated with 25 U/ml γIFN and 0.1 μg/ml LPS in the presence of test inhibitors. The urea concentration present in the supernatant media, after 18 hours of culture, is determined by a colorimetric blood urea nitrogen diacetylmonoxime assay performed on an aliquot of the culture supernatant (Sigma Chem. Co., St. Louis, Mo.) and inhibition is expressed as the percentage urea compared to that of a parallel control culture treated identically except that the concentration of added inhibitor is zero.
Various concentrations of the test compounds are included in the media of the stimulated RAW 264.7 cells in culture. The concentration of urea and/or nitrite after 18 hours of activated culture is determined and compared to the uninhibited control value obtained from at least one parallel culture. The fractional reduction is calculated for each concentration of inhibitor and the IC50 (concentration giving 50% reduction) is interpolated. Compounds were dissolved in media with mild heat (60° C.). Those with limited solubility were dissolved in base. The concentration of stock solutions of those compounds which were not completely soluble was determined by OD280.

[3] = test system: TNF; experiment: Serum TNF levels after parenteral LPS; format: in vivo, rats; conditions: i.p. 2.0 hours prior to LPS; measured 2-3 hours after LPS
Experimental: Qualitatively similar data has been obtained by measurement of the serum TNF levels in rats stimulated to produce TNF by parenteral LPS administration. Rats were given Compound No. 14, i.p., 2.0 hours prior to LPS stimulation. The serum levels of TNF were measured at between 2 and 3 hours after LPS stimulation.

[4] = test system: BALB/c mice; experiment: LPS-induced lethality (endotoxic shock); format: in vivo
Experimental: Experiments were undertaken to evaluate the effects of Compound No. 14 in preventing the lethal toxicity of lipopolysaccharide (LPS). LPS was administered to induce 50% lethality within 72 hr in BALB/c mice (FIG. 10). BALB/c mice (19-21 g) were given LPS (E. coli 0111:B4; Sigma) in a dose of 13.75 mg/Kg by intraperitoneal injection (0.2 ml/mouse). Stock LPS solutions (10 mg/ml) were sonicated initially for 20 min, diluted in LPS-free water (1.375 mg/ml), then sonicated again for 10 min immediately prior to injection. Compound No. 14 (1 mg/Kg, i.p.) was administered 1.5 hr before LPS. Compound No. 14 injectate was free of LPS as measured by quantitative chromogenic Limulus amebocyte lysate test (BioWhittaker, Walkersville, Md.). Data points are from two groups consisting of 10 mice per group.
Data were subjected to statistical analysis using the z test for independent proportions. The difference bewteen control and Compound No. 14 is significant (one-tailed p value<0.05; z=1.95).

[5] = test system: IL-6; experiment: Cytokine production by LPS/γIFN-stimulated human PBMC: IL-6; format: cell-based; conditions: γIFN+LPS, 18 hr
Source text: as §1

[6] = test system: TNF; experiment: TNF production by LPS/γIFN-stimulated RAW 264.7 cells; format: cell-based, murine
Experimental: RAW 264.7 cells were plated in standard 6-well culture plates at a density of 10^6/well and allowed to adhere for from 2 hr to overnight. The medium was then replaced with medium containing the compound to be tested. One hour later, the medium was supplemented so as to contain 25 U/ml γIFN and 0.1 μg/ml LPS and the cultures incubated a further 18 hr. The medium was then collected, and cell debris removed by centrifugation. This conditioned supernatant was then assayed for the presence of TNF using standard methodologies: L929 cell cytotoxicity bioassay, radioimmunoassay or ELISA, and Western blotting with antibodies against murine TNF.

[7] = test system: CHO-TNF tumor; experiment: CHO-TNF tumor growth in nude mice; format: in vivo; conditions: 0.4 mg/Kg i.p. once daily, two weeks
Experimental: This section describes in detail the methods and results of an animal model of tumor growth to determine the ability of the compounds of the invention to inhibit tumor growth, and cause regression of tumors. Cells are plated in standard tissue culture flasks in DMEM supplemented with fetal calf serum (10%). Chinese hamster ovary (CHO) cells stably transfected with a mammalian expression vector constitutively secrete human TNF (CHO-TNF). The experiments with the CHO-TNF tumor were performed as follows: on the day of injection into nude mice, cells are harvested and injected intramuscularly (10-15×10^6 cells per animal) into the hindlimb of nu/nu nude mice (20 g body weight). Animals are housed and provided food and water ad libitum. Tumor growth is monitored, and when established tumors are present (during week six) the test compounds are administered daily (0.4 mg/Kg intraperitoneal, once daily). After two weeks the animals are euthanized, the tumor weighed, and measured with a caliper. The CHO-TNF tumor also metastasizes to the skin of these animals; the number of metastases is scored.

[8] = test system: MIP-1β; experiment: Cytokine production by LPS/γIFN-stimulated human PBMC: MIP-1β; format: cell-based; conditions: γIFN+LPS, 18 hr
Source text: as §1

Question: Which “concentration that effectively inhibited production of TNF” value [1] does the source give for `CC(=NNC(=N)N)c1cc(NC(=O)CCCCCCCCC(=O)Nc2cc(C(C)=NNC(=N)N)cc(C(C)=NNC(=N)N)c2)cc(C(C)=NNC(=N)N)c1.Cl.Cl.Cl.Cl` [Compound 14, N,N′-bis(3,5-diacetyl-phenyl)decanediamide tetrakis(amidinohydrazone) tetrahydrochloride] here?
Answer: Its value is 10 to 20 µM.

Question: What about the “urea % suppression of induced production” value ([2]; dose 2 μM) of the same compound?
Answer: Its value is 68%.

Question: And the “urea % suppression of induced production” value ([2]; dose 10 μM)?
Answer: Its value is 78%.

Question: And the “urea % suppression of induced production” value ([2]; dose 50 μM)?
Answer: Its value is 100%.

Question: What about the “urea % suppression of induced production” value ([2]; dose 200 μM) of the same compound?
Answer: Its value is 100%.

Question: What about the IC50 ([2]; interpolated, γIFN+LPS-activated RAW 264.7, 18 hours, read-out: I.C.50 (in parenthesis), inhibition of urea production) of the same compound?
Answer: The IC50 was 1000 nM.

Question: What about the “serum TNF level vs untreated controls” value [3] of the same compound?
Answer: The value was “about half the level of serum TNF”.

Question: What about the “Diarrhea after LPS” value ([4]; 1 mg/Kg i.p. 1.5 hr before LPS) of the same compound?
Answer: The value was “not suppressed”.

Question: And the “visible signs of LPS toxicity” value ([4]; 1 mg/Kg i.p. 1.5 hr before LPS)?
Answer: Its value is “markedly suppressed”.

Question: What about the LPS-induced lethality ([4]; 1 mg/Kg i.p. 1.5 hr before LPS 13.75 mg/Kg i.p., 72 hr, p<0.05) of the same compound?
Answer: The LPS-induced lethality was “reduced lethality”.

Question: What about the “gross signs of systemic toxicity” value ([4]; animals receiving compound alone, 1 mg/Kg i.p.) of the same compound?
Answer: The value was “no gross signs of systemic toxicity”.

Question: And the “concentration that effectively inhibited production of IL-6” value [5]?
Answer: The value was 10 to 20 µM.

Question: What about the “reduction of TNF accumulation in the culture medium” value ([6]; 10 μM, L929 cell bioassay, 18 hr) of the same compound?
Answer: The value was “more than 99%”.

Question: What about the “TNF protein in the medium (Western blot)” value ([6]; 5 and 25 μM) of the same compound?
Answer: The value was “absence of TNF protein”.

Question: And the “# of METASTASES (skin)” value [7]?
Answer: Its value is “not present”.

Question: And the “reduction in tumor size (animals responding)” value [7]?
Answer: The value was “reduction in tumor size in four out of five animals”.

Question: And the “# of METASTASES (skin)” value ([7]; listed as No. 14)?
Answer: The value was 0.

Question: And the “TUMOR DIMENSION” value ([7]; n = 4)?
Answer: The value was 207.99 ± 119.90 mm^2.

Question: And the “TUMOR WEIGHT” value ([7]; n = 4)?
Answer: Its value is 1.628 ± 1.07 g.

Question: What about the “concentration that effectively inhibited production of MIP-1β” value [8] of the same compound?
Answer: Its value is 10 to 20 µM.
